The subject of one series is mushroom tyrosinase. Nature of the series: Spectrophotometric (UV-Vis) detection of tyrosinase inhibitory activity. In kind it is biochemical. The note with it: for tyrosinase inhibition in words, tyrosine versus dopamine as substrate: UV-Vis, absorbance at 311 or 472 nm, Figure 3.
A further series concerns laccase. Nature of the series: Laccase amperometric biosensor: IC50 and type of inhibition. In kind it is biochemical. The note with it: for Type of Inhibition Laccase: Lineweaver-Burk plot, biosensor exposed 30 min to twice the lowest inhibiting concentration; for VMAX, substrate + inhibitor, LAC: dopamine calibration 0-140 mM after inhibitor exposure, n=4 biosensors; for IC50: enzyme immobilized on biosensor, dopamine 50 µM, PBS pH 6.0.

The subject of series [1] is PC12 cells. Description: Protection of PC12 cells against H2O2-induced oxidative stress (MTT). In kind it is cell-based, rat. The note with it: for H2O2 Damage Protection: concentration with significant increase in viability vs H2O2, co-treatment with 100 μM H2O2, n.p.: no protection; for change of cell viability versus H2O2 alone, in words: co-treatment with 100 μM H2O2, compounds 1 up to 20 μM.
Method: (§1) 1.4 Viability and oxidative stress assays
(§2) PC12 cells, rat pheochromocytoma-derived cell line (ATCCCRL-1721) (passages 12–25) were maintained at 37
(§3) °C humidified air containing 5% CO2/95% atmospheric air and cultured in a 60 mm plastic culture plates with
(§4) Dulbecco’s modified Eagle’s medium supplemented with 10% horse serum, 5% fetal bovine serum and 1% of
(§5) penicillin/streptomycin. PC12 cells were treated for 24 h with the different compounds at different
(§6) concentrations ranging from 1 to 40 μM, to evaluate their eventual toxicity. Then, in order to assess the
(§7) eventual compounds’ protection properties, PC12 cell treated with hydrogen peroxide (100μM) in association
with increasing concentration of the above-mentioned molecules, from 1 up to 20 μM.
(§8) For all treatments cell viability was measured by means of MTT assay, as explained in
(§9) At the end of the exposure time of each experiment, the cell viability was assessed by means of MTT (3-(4,5-
(§10) dimethyl-thiazol-2-yl)-2,5-diphenyltetrazoliumbromide) assay. For this purpose, 1 mg/mL of MTT was added
(§11) to each sample and incubated for 4 h at 37 °C. Only viable cells are able to convert the soluble dye MTT into
(§12) the insoluble formazan crystals. After the incubation the MTT supernatant solution was removed, the cells
(§13) were washed in phosphate-buffered saline (PBS) and centrifuged while the pellet was dissolved in 2 mL of
(§14) isopropanol. After centrifugation of the solution at 4,000 rpm for 5 min, the absorbance for each sample was
(§15) assessed by means of a Bauty Diagnostic Microplate Reader at 578 nm. All experiments were performed in 24-
(§16) well plates (1 × 10^5 cells/mL/well) and repeated in triplicate.

Another series deals with tyrosinase (Agaricus bisporus, UniProt C7FF04). Nature of the series: Tyrosinase amperometric biosensor: IC50 and type of inhibition.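 On all read-outs here: Carbon-composite amperometric tyrosinase biosensors with polyurethane-entrapped enzyme, calibrated in a three-electrode cell against Ag/AgCl at room temperature, before versus after inhibitor exposure.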 In kind it is biochemical. The note with it: for Type of Inhibition Tyrosinase: Lineweaver-Burk plot, biosensor exposed 30 min to twice the lowest inhibiting concentration; for VMAX, substrate + inhibitor, TYR: dopamine calibration 0-140 mM after inhibitor exposure, n=4 biosensors.
Sequence of tyrosinase (C7FF04 2-392): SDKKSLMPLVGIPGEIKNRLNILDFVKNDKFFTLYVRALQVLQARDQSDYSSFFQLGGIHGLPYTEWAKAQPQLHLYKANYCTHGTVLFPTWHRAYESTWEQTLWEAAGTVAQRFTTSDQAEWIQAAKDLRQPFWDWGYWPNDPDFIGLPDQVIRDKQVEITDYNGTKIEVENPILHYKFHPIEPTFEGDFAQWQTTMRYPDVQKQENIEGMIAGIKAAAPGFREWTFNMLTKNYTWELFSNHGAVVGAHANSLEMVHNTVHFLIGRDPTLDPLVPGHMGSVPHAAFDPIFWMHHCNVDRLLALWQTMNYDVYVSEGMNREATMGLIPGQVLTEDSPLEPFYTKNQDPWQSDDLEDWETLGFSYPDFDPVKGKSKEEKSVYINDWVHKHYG

Series [2] concerns PC12 cells. Nature of the series: Viability of PC12 cells (MTT assay). In kind it is cell-based, rat. The note with it: cell viability < 80%; screening from 1 to 40 μM, 24 h.
Method: Initially, the inhibitor concentrations on PC12 cells, i.e., a rat pheochromocytoma-derived cell line, were screened to assess the possible cytotoxicity of the molecules under study [55].
as §1, §2, §3, §4, §5
concentrations ranging from 1 to 40 μM, to evaluate their eventual toxicity.
as §8
the following paragraph [17].
as §9, §10, §11, §12, §13, §14, §15, §16
Series [3] deals with PC12 cells. Nature of the series: Protection of PC12 cells against MnCl2 damage (MTT). In kind it is cell-based, rat. The note with it: concentration with significant increase in viability vs MnCl2; co-treatment with 1 mM MnCl2; n.p.: no protection.
Method: as §2, §3, §4, §5, §6, §7
with increasing concentration of the above-mentioned molecules, from 1 up to 20 μM. For the compounds that
against MnCl2 insult. For all treatments cell viability was measured by means of MTT assay, as explained in
as §9
For this purpose, 1 mg/mL of MTT was added
as §11
the insoluble formazan crystals. After the incubation the MTT supernatant solution was removed, the cells […]
as §14
assessed by means of a Bauty Diagnostic Microplate Reader at 578 nm. […]
For a further series, the system named is Tenebrio molitor. Nature of the series: Insecticidal properties on mealworm larvae. In kind it is in vivo. The note with it: Tenebrio molitor, topical, 120 h, larvae immersed three seconds in 2.5 mL acetone solution 6.4 mg/mL, reared five days; DFB as Dimilin WP 25% a.i., 25.6 mg/mL; read-out: Mortality% (Mean ± SD). The procedure: Late instar larvae of Tenebrio molitor from a twenty-year-old insect culture at the Research Institute on Terrestrial Ecosystems (National Research Council, Sassari, Italy) were used in the experiments. The species was reared on bran flour, with the integration of fresh vegetables, at 25 °C, 65% relative humidity and 16:8 hours light/darkness.
One hundred medium instar larvae were isolated in a petri dishes (diam. 50 mm). They were then immersed for three seconds in 2.5 mL of an acetone solution (concentration 6.4 mg/mL w:v) of one of the fourteen compounds listed in Table 3. In addition, a treatment with the commercial formulation Dimilin (WP, 25% a.i. diflubenzuron) (acetone solution, 25.6 mg/mL w:v) and a negative control (no treatment) were tested.
After treatment, the larvae were subdivided into five 20-specimen groups and reared for five days in a small PVC box (150 L × 120 W × 50 H mm) with the same feed and conditions as standard rearing. Mortality was recorded daily.
The statistical analysis was conducted with the R software (R Development Core Team 2016). Mortality data, expressed as a percentage, were arcsin(√x)-transformed to satisfy assumptions of normality. ANOVA was performed by the Duncan test for mean separation.

Each structure is given as a SMILES string. “Also recorded” adds a separate entry of the source. Where only a bound is given, the exact number is not on record here.

Method for laccase: Inhibition types and IC50 were assessed by means of carbon-based amperometric biosensors [61, 62, 63, 64, 65], that are described in the Supplementary Materials. During the experiments carried out to determine the IC50 values, the lowest inhibitory concentration of each compound was also evaluated.
To verify the inhibition types, the following protocol was used. An initial calibration with dopamine, ranging between 0 and 140 mM, was performed in order to ascertain the values of VMAX and KM. Another calibration with the same protocol was performed after having exposed the biosensors to twice the lowest inhibiting concentration of each inhibitor, in order to ensure the safe inhibition of enzymatic activity. The biosensors were exposed to the inhibitor for 30 min and after having reached a stabile baseline, a calibration with dopamine, ranging between 0 and 140 mM, was performed and the value of VMAX and KM were calculated. The variations of both VMAX and KM were then analyzed by using the Lineweaver-Burk plot in order to identify the type of inhibition induced by the tested compound. The statistical difference in VMAX and KM, before exposing the biosensors to the inhibitor and then afterwards, was calculated by means of a paired t-test (p < 0.05).
The biosensors were prepared starting from a Teflon™-insulated silver wire (30 mm in length; Ø = 125 μm),
Briefly, 1 mm of the silver wire was exposed and then introduced into a silica
capillary cylinder (10 mm in length; I.D. Ø = 180 μm, Polymicro Technologies, Phoenix, AZ, USA) partly
packed with graphite-loaded (55% w/w) epoxy resin. By mixing 850 mg of graphite with 500 mg of Araldite-
M and 200 mg of hardener, a preliminary disc electrode of carbon-composite was fabricated (Ø = 180 μm; area:
2.5 × 10−4 cm2) by filling the silica capillary tubing with the mixture. The silver wire assured a good electrical
contact. After 24 h at 40 °C, the electrode surface was cleaned using a high-speed drill (Dremel® 300) equipped
with an aluminum oxide grinding wheel. On top of the electrode surface a 1 µl of Tyrosinase or Laccase
solution was deposited. After the complete evaporation of water at room temperature, the biosensor was
quickly dipped in the polyurethane solution in order to entrap the enzyme on the electrode surface, and after
the complete evaporation of the solvent biosensors were put to stabilize in PBS pH=6.0 overnight.
The electrochemical measurements were performed at room temperature in a classical three-electrode
electrochemical cell consisting of four biosensors as working electrodes, a reference electrode (Ag/AgCl in
Constant potential amperometry (CPA) was used for in-vitro calibrations and for inhibition evaluation
experiments by applying a constant potential of -50 mV against an Ag/AgCl reference electrode, by means of
a four-channel potentiostat (eDAQ Quadstat, e- Corder 410, eDAQ Europe, Poland) and the software Chart (v
5.5, eDAQ Europe, Poland). Thus, once the stabilization of the baseline of biosensors was reached, increasing
volumes of a stock solution of dopamine 1 M were added in order to obtain different concentrations ranging
Method for mushroom tyrosinase: Kinetic assays were carried out by measuring the appearance of the product of either tyrosine or dopamine oxidation in the reaction medium at 311 and 472 nm, respectively, in a Shimadzu UV-2501 spectrophotometer (Shimadzu, Kyoto, Japan) equipped with the UV-Probe software, using a tandem quartz cuvette (Hellma, Milan, Italy) with a 2 × 4.375-mm path length [1, 2, 51]. Briefly, one side of the dual chamber cuvette was filled with 1000 µl of mushroom tyrosinase solution in 50 mM phosphate buffer, pH 6.8, 166 Units/mL using tyrosine as substrate or a 16.6 Units/mL when dopamine was used as substrate. The other chamber was loaded with 980 µL of substrate solution (180 µM tyrosine or 18 µM dopamine) in 20 mM phosphate buffer (pH 6.8) added of either 20 µL of DMSO (control) or 20 µL of a 2 mM (0.2 mM in dopamine experiments) solution of tested inhibitors in DMSO. A background spectrum in the 250–700 nm range was acquired with a 2.0 nm slit and fast speed before starting the reaction. Thereafter, the solutions in the two chambers were mixed by inversion and the UV-Vis spectra were acquired at increasing time intervals. Spectra were recorded at 311 or 472 nm in the presence of the inhibitor before mixing, and after either 24 or 10 min, using tyrosine or dopamine as a substrate, respectively. Data processing was performed with UV Probe and OriginPro 2019 (v. 9.60) softwares.
The mushroom tyrosinase was used as purchased without further purification. All solutions (tyrosinase, substrates and inhibitors) were filtered through a 0.45-μm syringe filter, aliquoted in Eppendorf tubes, and stored in freezer. The relative concentration was determined spectrophotometrically (εtyrosine 274.6 nm = 1420 M^−1·cm^−1; εdopamine at 280 nm = 2670 M^−1·cm^−1; εtyrosinase at 280 nm = 1426 M^−1·cm^−1).
Tyrosine was dissolved in 50 mM phosphate buffer, pH 6.8, final concentration 80 µM and with the added inhibitor (final concentration 20 µM) and tyrosinase (83 U/mL). The absorbance values were determined after 24 min of incubation. In the presence of dopamine, experiments were performed using 10-fold diluted solutions, and the absorbance values were determined after 10 min of incubation.

With `COc1cc(/C=C/C(=O)c2ccccc2)ccc1O` [Compound 10], in the series with mushroom tyrosinase (comparable with both substrates, tyrosine 80 µM, inhibitor 20 µM, 24 min, dopamine 10-fold diluted solutions, 10 min), the “% inhibition of tyrosinase” value is reported as 10%. Besides, in the series with laccase, the “Type of Inhibition Laccase” value is reported as “competitive”; the “VMAX, substrate + inhibitor, LAC” value is given as 89.2±7.7 nA; half-maximal inhibition (IC50) required 212 nM. In addition, the “H2O2 Damage Protection” value in the series on PC12 cells [1] was found to be 20 µM. At tyrosinase, the “Type of Inhibition Tyrosinase” value is recorded as “uncompetitive or mixed; also recorded: mixed” and the “VMAX, substrate + inhibitor, TYR” value is given as 31.5±2.9 nA. In addition, the “Toxic Concentration” value with PC12 cells [2] is recorded as over 20 µM. Also, the “MnCl2 Damage Protection” value in the series with PC12 cells [3] is recorded as “n.p”.

For `OC[C@H]1O[C@@H](Oc2ccc(-c3ccc(O)cc3)cc2)[C@H](O)[C@@H](O)[C@@H]1O` [Compound 18, (2S,3R,4S,5S,6R)-2-((4’-hydroxy-[1,1’-biphenyl]-4-yl)oxy)-6-(hydroxymethyl)tetrahydro-2H-pyran-3,4,5-triol], the melting point was in the range of 260 to 262 °C. The “tyrosinase inhibition in words, tyrosine versus dopamine as substrate” value in the series with mushroom tyrosinase is listed as “predominant inhibition of tyrosine oxidation”. For the same compound, in the series with laccase, the “Type of Inhibition Laccase” value was “competitively; also recorded: competitive”; the “VMAX, substrate + inhibitor, LAC” value was determined as 98.1±3.3 nA; the half-inhibitory concentration (IC50) worked out at 2620 nM. Further, in the series on PC12 cells [1], the “change of cell viability versus H2O2 alone, in words” value is on record as “significant decrease (p < 0.05 vs H2O2) in cells viability at all concentrations tested” and the “H2O2 Damage Protection” value is reported as “n.p”. Moreover, at tyrosinase, the “Type of Inhibition Tyrosinase” value is on record as “competitively; also recorded: competitive” and the “VMAX, substrate + inhibitor, TYR” value worked out at 145.8±17.8 nA. Also, the “Toxic Concentration” value with PC12 cells [2] is given as “none”.

In turn, `OC[C@H]1O[C@@H](Oc2ccc(-c3ccc(O)c(Br)c3)cc2Br)[C@H](O)[C@@H](O)[C@@H]1O` [Compound 19, (2S,3R,4S,5S,6R)-2-((3,3’-dibromo-4’-hydroxy-[1,1’-biphenyl]-4-yl)oxy)-6-(hydroxymethyl)tetrahydro-2H-pyran-3,4,5-triol] yielded a melting point of 176 to 178 °C. Besides, the “tyrosinase inhibition in words, tyrosine versus dopamine as substrate” value with mushroom tyrosinase was “predominant inhibition of tyrosine oxidation”. In the series with laccase, the “Type of Inhibition Laccase” value is “competitive”; the “VMAX, substrate + inhibitor, LAC” value was 111.4±8.9 nA; it took 130 nM to reach half-maximal inhibition (IC50). In the series with PC12 cells [1], the “change of cell viability versus H2O2 alone, in words” value is given as “significant decrease (p < 0.05 vs H2O2) in cells viability at all concentrations tested” and the “H2O2 Damage Protection” value is reported as “n.p”. Further, on tyrosinase, the “Type of Inhibition Tyrosinase” value is given as “noncompetitive” and the “VMAX, substrate + inhibitor, TYR” value is 123.5±9.8 nA. In addition, the “Toxic Concentration” value in the series on PC12 cells [2] is recorded as “none”.

Turning to `CC(=O)C=Cc1ccc(O)cc1O` [Compound 7, reference compound], in the series on mushroom tyrosinase, the “tyrosinase inhibition in words, tyrosine versus dopamine as substrate” value is on record as “most active tyrosinase inhibitor in the presence of both substrates”. Further, the pest or weed control at 6400 µg/mL in the series with Tenebrio molitor was 5 ± 7.07%. In addition, in the series with laccase, the “Type of Inhibition Laccase” value was “competitively; also recorded: competitive” and the “VMAX, substrate + inhibitor, LAC” value turned out to be 188.4±9.0 nA. Moreover, in the series on PC12 cells [1], the “H2O2 Damage Protection” value worked out at 1 µM. Moreover, on tyrosinase, the “Type of Inhibition Tyrosinase” value is recorded as “competitively; also recorded: competitive” and the “VMAX, substrate + inhibitor, TYR” value is given as 114.1±12.5 nA. The “Toxic Concentration” value in the series with PC12 cells [2] is on record as over 10 µM. In addition, the “MnCl2 Damage Protection” value with PC12 cells [3] is “n.p”.
